We go through 22 compounds from patent US8691865B2 (AbbVie Inc., priority 2008, dated 2014).

human Cav2.2, sequence (Q00975 whole entry): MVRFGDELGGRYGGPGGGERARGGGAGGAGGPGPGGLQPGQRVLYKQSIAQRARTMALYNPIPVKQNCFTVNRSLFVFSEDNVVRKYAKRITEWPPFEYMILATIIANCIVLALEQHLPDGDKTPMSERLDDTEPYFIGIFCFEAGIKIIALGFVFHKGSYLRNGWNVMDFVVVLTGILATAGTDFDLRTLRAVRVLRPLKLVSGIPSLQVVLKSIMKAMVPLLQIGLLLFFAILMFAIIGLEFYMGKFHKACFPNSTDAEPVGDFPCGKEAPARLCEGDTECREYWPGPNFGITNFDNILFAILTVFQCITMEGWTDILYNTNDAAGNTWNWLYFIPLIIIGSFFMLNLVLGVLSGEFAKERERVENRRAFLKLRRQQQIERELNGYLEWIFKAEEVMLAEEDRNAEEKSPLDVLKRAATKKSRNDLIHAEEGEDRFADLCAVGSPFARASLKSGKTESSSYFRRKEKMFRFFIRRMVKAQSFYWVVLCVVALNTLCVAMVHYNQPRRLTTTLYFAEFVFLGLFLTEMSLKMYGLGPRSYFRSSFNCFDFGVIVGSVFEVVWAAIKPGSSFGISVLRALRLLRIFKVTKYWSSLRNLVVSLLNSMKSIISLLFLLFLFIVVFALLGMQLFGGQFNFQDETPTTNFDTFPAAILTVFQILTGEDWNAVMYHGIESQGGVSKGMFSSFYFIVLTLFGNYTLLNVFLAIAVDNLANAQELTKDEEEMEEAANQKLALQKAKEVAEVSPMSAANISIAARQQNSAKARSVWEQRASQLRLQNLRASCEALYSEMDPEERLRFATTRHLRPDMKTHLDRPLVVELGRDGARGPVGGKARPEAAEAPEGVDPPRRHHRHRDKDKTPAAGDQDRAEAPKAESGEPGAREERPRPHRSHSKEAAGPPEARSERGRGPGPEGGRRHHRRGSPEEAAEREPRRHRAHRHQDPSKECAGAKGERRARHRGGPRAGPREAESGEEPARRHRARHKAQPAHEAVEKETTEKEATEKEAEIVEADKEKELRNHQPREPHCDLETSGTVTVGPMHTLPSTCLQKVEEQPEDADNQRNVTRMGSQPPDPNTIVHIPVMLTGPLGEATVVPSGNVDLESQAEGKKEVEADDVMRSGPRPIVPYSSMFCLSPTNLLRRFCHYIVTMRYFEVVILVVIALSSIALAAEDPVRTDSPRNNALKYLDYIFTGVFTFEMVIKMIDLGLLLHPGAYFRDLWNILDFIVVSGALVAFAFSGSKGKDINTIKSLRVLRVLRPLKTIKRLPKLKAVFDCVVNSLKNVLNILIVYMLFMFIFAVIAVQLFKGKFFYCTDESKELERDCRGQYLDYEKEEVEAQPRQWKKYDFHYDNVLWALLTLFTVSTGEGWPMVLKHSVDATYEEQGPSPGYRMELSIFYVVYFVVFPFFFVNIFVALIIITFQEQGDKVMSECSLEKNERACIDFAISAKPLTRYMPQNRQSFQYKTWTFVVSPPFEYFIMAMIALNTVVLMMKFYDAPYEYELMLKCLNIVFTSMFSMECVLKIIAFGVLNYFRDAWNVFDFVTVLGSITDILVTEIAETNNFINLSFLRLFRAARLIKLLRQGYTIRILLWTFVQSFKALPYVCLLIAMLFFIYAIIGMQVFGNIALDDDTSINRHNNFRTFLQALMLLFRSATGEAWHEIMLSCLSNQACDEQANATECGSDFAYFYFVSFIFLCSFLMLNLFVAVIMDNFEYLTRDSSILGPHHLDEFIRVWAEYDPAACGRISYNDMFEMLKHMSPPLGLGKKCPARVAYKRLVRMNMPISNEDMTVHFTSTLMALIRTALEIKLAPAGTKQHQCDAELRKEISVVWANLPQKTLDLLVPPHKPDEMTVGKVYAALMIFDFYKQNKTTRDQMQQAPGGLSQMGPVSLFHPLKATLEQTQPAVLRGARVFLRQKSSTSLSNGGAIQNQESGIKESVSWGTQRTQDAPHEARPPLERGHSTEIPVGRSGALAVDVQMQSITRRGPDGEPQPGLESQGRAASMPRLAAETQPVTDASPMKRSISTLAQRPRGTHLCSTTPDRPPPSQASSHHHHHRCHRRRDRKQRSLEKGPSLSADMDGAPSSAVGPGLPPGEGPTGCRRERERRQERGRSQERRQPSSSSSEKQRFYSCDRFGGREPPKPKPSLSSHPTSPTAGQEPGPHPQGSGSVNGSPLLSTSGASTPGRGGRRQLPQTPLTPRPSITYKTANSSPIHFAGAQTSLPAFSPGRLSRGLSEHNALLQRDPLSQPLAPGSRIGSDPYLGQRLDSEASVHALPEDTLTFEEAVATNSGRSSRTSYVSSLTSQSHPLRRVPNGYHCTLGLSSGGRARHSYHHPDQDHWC
human Cav2.2, sequence (P54289 25-956 partner limits assumed): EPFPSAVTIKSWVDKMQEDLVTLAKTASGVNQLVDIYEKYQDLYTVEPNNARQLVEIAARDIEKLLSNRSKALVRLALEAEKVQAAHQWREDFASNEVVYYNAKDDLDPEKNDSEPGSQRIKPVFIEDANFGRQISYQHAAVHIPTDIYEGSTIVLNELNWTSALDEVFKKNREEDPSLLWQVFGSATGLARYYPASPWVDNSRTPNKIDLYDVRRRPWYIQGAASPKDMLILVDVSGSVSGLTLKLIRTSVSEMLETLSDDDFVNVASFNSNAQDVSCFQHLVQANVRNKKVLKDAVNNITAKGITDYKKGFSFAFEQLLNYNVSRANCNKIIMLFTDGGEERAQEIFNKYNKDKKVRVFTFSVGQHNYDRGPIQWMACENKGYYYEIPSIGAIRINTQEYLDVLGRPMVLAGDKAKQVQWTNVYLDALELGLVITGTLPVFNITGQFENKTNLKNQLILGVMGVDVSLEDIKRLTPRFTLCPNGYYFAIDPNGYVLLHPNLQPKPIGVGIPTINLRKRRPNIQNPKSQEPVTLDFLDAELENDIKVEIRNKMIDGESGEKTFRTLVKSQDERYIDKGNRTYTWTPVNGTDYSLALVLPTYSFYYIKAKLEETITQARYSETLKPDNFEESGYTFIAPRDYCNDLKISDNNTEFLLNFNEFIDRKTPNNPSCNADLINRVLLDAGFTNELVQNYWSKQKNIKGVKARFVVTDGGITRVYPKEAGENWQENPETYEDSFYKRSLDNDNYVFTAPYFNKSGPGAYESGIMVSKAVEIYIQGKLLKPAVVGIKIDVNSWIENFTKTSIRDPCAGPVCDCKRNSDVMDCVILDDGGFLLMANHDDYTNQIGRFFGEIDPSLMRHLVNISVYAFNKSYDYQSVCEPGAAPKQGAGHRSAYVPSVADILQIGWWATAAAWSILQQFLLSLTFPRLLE
human Cav2.2, sequence (P54289 957-1103 partner limits assumed): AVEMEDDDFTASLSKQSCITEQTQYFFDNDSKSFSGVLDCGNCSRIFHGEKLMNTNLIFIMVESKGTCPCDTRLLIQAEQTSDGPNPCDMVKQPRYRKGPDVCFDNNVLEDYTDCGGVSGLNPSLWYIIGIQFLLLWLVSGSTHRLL
human Cav2.2, sequence (P54284 whole entry partner): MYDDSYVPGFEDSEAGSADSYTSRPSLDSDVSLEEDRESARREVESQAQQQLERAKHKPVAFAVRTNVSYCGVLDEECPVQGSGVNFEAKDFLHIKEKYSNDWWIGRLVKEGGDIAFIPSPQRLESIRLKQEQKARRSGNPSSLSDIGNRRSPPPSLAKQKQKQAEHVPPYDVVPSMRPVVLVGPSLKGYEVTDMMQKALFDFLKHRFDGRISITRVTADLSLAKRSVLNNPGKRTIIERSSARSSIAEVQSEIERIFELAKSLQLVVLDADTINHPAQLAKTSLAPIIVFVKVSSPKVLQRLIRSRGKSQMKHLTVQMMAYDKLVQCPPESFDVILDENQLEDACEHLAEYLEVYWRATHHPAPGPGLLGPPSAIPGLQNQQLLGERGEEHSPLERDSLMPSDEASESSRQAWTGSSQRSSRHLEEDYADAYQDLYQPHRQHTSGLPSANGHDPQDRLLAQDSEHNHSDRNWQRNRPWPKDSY

One assay addresses human Cav2.2 (Homo sapiens, UniProt Q00975). The assay is described as follows: Assessment of calcium channel activity using FLIPR (Ca2+ influx in IMR32 cells). It counts as cell-based.
Settings: not given
Put shortly:
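Human neuroblastoma IMR32 cells were seeded at 1−1.2×10^5 cells/well and cultured 48 h at 37 °C before FLIPR calcium influx measurement. Percent inhibition at each concentration was calculated against the no-inhibitor signal, and IC50 came from sigmoidal dose-response fits.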
The IC50 is the point on the concentration scale where inhibition reaches its midpoint. In the case of `CC(C)C(C(=O)N[C@H]1CC[C@@H]2CN(Cc3cccc(C(F)(F)F)c3)C[C@@H]21)C(C)C` [Example 305, 2-isopropyl-3-methyl-N-{(3aR,4S,6aS)-2-[3-(trifluoromethyl)benzyl]octahydrocyclopenta[c]pyrrol-4-yl}butanamide], the IC50 worked out at 1.63 µM.
The same measure, in the same setting: as for `COc1ccccc1N1C[C@H]2CC[C@H](NC(=O)[C@@H]3C[C@@H](F)CN3)[C@H]2C1` [Example 662, (4R)-4-fluoro-N-[(3aR,4S,6aS)-2-(2-methoxyphenyl)octahydrocyclopenta[c]pyrrol-4-yl]-L-prolinamide], the figure is greater than 30 µM; as for `CC(C)C[C@@H](O)C(=O)N[C@H]1CC[C@@H]2CN(c3cccc(C(F)(F)F)n3)C[C@@H]21` [Example 578, (2R)-2-hydroxy-4-methyl-N-{(3aR,4S,6aS)-2-[6-(trifluoromethyl)pyridin-2-yl]octahydrocyclopenta[c]pyrrol-4-yl}pentanamide], 1 µM.
Same read-out and setting: as for `CN(C)[C@@H](CC1CC1)C(=O)N[C@H]1CC[C@@H]2CN(c3ccc(OC(F)(F)F)cc3)C[C@@H]21` [Example 777, 3-cyclopropyl-N^2,N^2-dimethyl-N-{(3aR,4S,6aS)-2-[4-(trifluoromethoxy)phenyl]octahydrocyclopenta[c]pyrrol-4-yl}-L-alaninamide], the figure is 2.16 µM.
As to `CCC[C@H](NCC(C)(C)C)C(=O)N[C@@H]1CC[C@H]2CN(S(=O)(=O)c3ccc(C(F)(F)F)cc3)C[C@H]21` [Example 260, N^2-neopentyl-N^1-((3aS,4R,6aR)-2-{[4-(trifluoromethyl)phenyl]sulfonyl}octahydrocyclopenta[c]pyrrol-4-yl)-L-norvalinamide], the IC50 was determined as 1.11 µM.
Regarding `O=C(N[C@H]1CC[C@@H]2CN(c3cccc(C(F)(F)F)n3)C[C@@H]21)c1ccc(-c2cccs2)o1` [Example 571, 5-(2-thienyl)-N-{(3aR,4S,6aS)-2-[6-(trifluoromethyl)pyridin-2-yl]octahydrocyclopenta[c]pyrrol-4-yl}-2-furamide], the IC50 was 1.11 µM.
With `CN[C@@H](CC(C)C)C(=O)N[C@H]1CC[C@@H]2CN(c3ncc(C(F)(F)F)cc3Br)C[C@@H]21` [Example 766, N-{(3aR,4S,6aS)-2-[3-bromo-5-(trifluoromethyl)pyridin-2-yl]octahydrocyclopenta[c]pyrrol-4-yl}-N^2-methyl-L-leucinamide], the half-inhibitory concentration (IC50) came to 0.63 µM.
As to `Cc1c(CN[C@H]2CC[C@@H]3CN(c4cccc(C(F)(F)F)n4)C[C@@H]32)[nH]c2ccccc12` [Example 664, (3aR,4S,6aS)-N-[(3-methyl-1H-indol-2-yl)methyl]-2-[6-(trifluoromethyl)pyridin-2-yl]octahydrocyclopenta[c]pyrrol-4-amine], the half-inhibitory concentration (IC50) turned out to be 1.69 µM.
`CN[C@H](CC(C)C)C(=O)N[C@@H]1CC[C@H]2CN(c3ccc(C(F)(F)F)cc3)C[C@H]21` [Example 768, N^2-methyl-N-{(3aS,4R,6aR)-2-[4-(trifluoromethyl)phenyl]octahydrocyclopenta[c]pyrrol-4-yl}-D-leucinamide]: the IC50 was found to be 2.36 µM.
With `CC(C)(C)C[C@H](N)C(=O)N[C@H]1CC[C@@H]2CN(C(=O)[C@@H](N)CC(C)(C)C)C[C@@H]21` [Example 464, 4-methyl-N^1-[(3aR,4S,6aS)-2-(4-methyl-L-leucyl)octahydrocyclopenta[c]pyrrol-4-yl]-L-leucinamide], the IC50 was greater than 30 µM.
On to `CC[C@H](C)[C@H](NC)C(=O)N[C@@H]1CC[C@H]2CN(Cc3ccccc3)C[C@H]21` [Example 354, N^1-[(3aS,4R,6aR)-2-benzyloctahydrocyclopenta[c]pyrrol-4-yl]-N^2-methyl-L-isoleucinamide], for which the concentration for half-maximal inhibition (IC50) is greater than 30 µM.
Take `CN[C@@H](CC(C)C)C(=O)N[C@H]1CC[C@@H]2CN(c3ccc(F)cc3)C[C@@H]21` [Example 620, N-[(3aR,4S,6aS)-2-(4-fluorophenyl)octahydrocyclopenta[c]pyrrol-4-yl]-N^2-methyl-L-leucinamide]: the concentration for half-maximal inhibition (IC50) turned out to be 5.31 µM.
For `CN[C@@H](CC1CC1)C(=O)N[C@H]1CC[C@@H]2CN(c3ccc(OC(F)(F)F)cc3)C[C@@H]21` [Example 775, 3-cyclopropyl-N^2-methyl-N-{(3aR,4S,6aS)-2-[4-(trifluoromethoxy)phenyl]octahydrocyclopenta[c]pyrrol-4-yl}-L-alaninamide], the IC50 is 2.77 µM.
On the same count and under the same terms, as for `O=C(N[C@H]1CC[C@@H]2CN(S(=O)(=O)c3cccc(C(F)(F)F)c3)C[C@@H]21)[C@@H]1CCCN1` [Example 387, N-((3aR,4S,6aS)-2-{[3-(trifluoromethyl)phenyl]sulfonyl}octahydrocyclopenta[c]pyrrol-4-yl)-L-prolinamide], the figure is 5.87 µM; as for `Fc1cnc2[nH]cc(CN[C@H]3CC[C@@H]4CN(c5cccc(C(F)(F)F)n5)C[C@@H]43)c2c1` [Example 690, (3aR,4S,6aS)-N-[(5-fluoro-1H-pyrrolo[2,3-b]pyridin-3-yl)methyl]-2-[6-(trifluoromethyl)pyridin-2-yl]octahydrocyclopenta[c]pyrrol-4-amine], 0.75 µM.

The same assay, now with this note: read-out: IC50 (μM) or percent inhibition (* indicates 3 minute incubation, otherwise 60 minute); IC50; 60 minute pre-incubation with compound; IMR32 cells, 80 mM KCl depolarization.
As to “(3aR,4S,6aS)-N-[(4-chloro-1H-indol-3-yl)methyl]-2-[6-(trifluoromethyl)pyridin-2-yl]octahydrocyclopenta[c]pyrrol-4-amine [Example 692]”, the concentration for half-maximal inhibition (IC50) was 0.99 µM.
As to `CC(C)C[C@@H](NC(=O)OC(C)(C)C)C(=O)N[C@H]1CC[C@H]2CN(Cc3cccc(C(F)(F)F)c3)C[C@H]21` (stereo in doubt) [Example 138, N^2-(tert-butyloxycarbonyl)-N^1-{(3aS*,4S*,6aR*)-2-[3-(trifluoromethyl)benzyl]octahydrocyclopenta[c]pyrrol-4-yl}-D-leucinamide], the IC50 worked out at 0.82 µM.
Same read-out and setting: as for `CN[C@H](CC(C)C)C(=O)N[C@H]1CC[C@H]2CN(Cc3cccc(C(F)(F)F)c3)C[C@H]21` (relative stereo) [Example 160, N^2-methyl-N^1-{(3aS*,4S*,6aR*)-2-[3-(trifluoromethyl)benzyl]octahydrocyclopenta[c]pyrrol-4-yl}-D-leucinamide], the figure is 3.78 µM.
As for `O=C(CCC(c1ccc(F)cc1)c1ccc(F)cc1)N[C@H]1CC[C@H]2CN(Cc3cccc(C(F)(F)F)c3)C[C@H]21` (relative stereo) [Example 134, 4,4-bis(4-fluorophenyl)-N-{(3aS*,4S*,6aR*)-2-[3-(trifluoromethyl)benzyl]octahydrocyclopenta[c]pyrrol-4-yl}butanamide], the IC50 came out at 1.15 µM.
The same measure, in the same setting: with `CC[C@H](C(=O)N[C@@H]1CC[C@H]2CN(Cc3ccccc3)C[C@H]21)c1ccccc1` [Example 16, (2S)-N-[(3aS,4R,6aR)-2-benzyloctahydrocyclopenta[c]pyrrol-4-yl]-2-phenylbutanamide] the figure was 9.75 µM; with `COc1ccccc1CN1C[C@H]2CC[C@H](NC(=O)C(c3ccccc3)C(C)C)[C@H]2C1` (stereo partly drawn) [Example 94, N-[(3aR,4S,6aS)-2-(2-methoxybenzyl)octahydrocyclopenta[c]pyrrol-4-yl]-3-methyl-2-phenylbutanamide], 2.33 µM.
With `CC(C)C[C@H](N)C(=O)N[C@@H]1CC[C@H]2CN(S(=O)(=O)c3cccc(C(F)(F)F)c3)C[C@H]21` [Example 184, N^1-((3aS,4R,6aR)-2-{[3-(trifluoromethyl)phenyl]sulfonyl}octahydrocyclopenta[c]pyrrol-4-yl)-L-leucinamide], the IC50 is 1.45 µM.
